{"source": "paper PMC10518255", "about": "“A first-in-class pan-lysyl oxidase inhibitor impairs stromal remodeling and enhances gemcitabine response and survival in pancreatic cancer” (Nature Cancer, 2023)", "key": {"KPC CCs": {"test_system": "KPC CCs", "assay": "Cancer cell invasion into CAF-remodeled 3D organotypic matrices", "assay_type": "cell-based, mouse", "conditions": "PXS-5120 100 nM", "method": "(§1) Fig. 3 PXS-5505 inhibition of CAF remodeling in vitro. a, Quantitative PCR with reverse transcription (qRT–PCR) showing in vitro comparison of KPC CAF relative expression of lysyl oxidase family members compared to KPC CCs from the same model (n = 3 biologically independent samples). Comparisons were determined by 2^–∆∆Ct approach. b, Representative images of 3D organotypic matrix contraction assay at days 2, 6 and 12 in the absence (gray) or presence (pink) of PXS-5505 (30 µM). Scale bars, 5 mm. Comparison of measured area of matrices between control and PXS-5505 treatment groups over time (n = 3 technical samples examined over three biologically independent samples). Data are mean ± s.d. c, Concentration of immature divalent DHLNL and mature trivalent Pyr collagen crosslinks determined by LC–MS from control and PXS-5505-treated organotypic matrices at day 12 (n = 3 technical samples examined over two biologically independent samples). Data are mean ± s.d. […] Data are presented as mean ± s.d. […] Comparison of number of CCs invaded per field of view (FOV) as determined by H&E and PanCK staining (nine images taken from three technical samples from each of three biologically independent contracted matrices), normalized to control. Data are mean ± s.d. Scale bars, 100 μm. […] Source data\nFollowing remodeling, 4 × 10^4 KPC CCs were seeded on top of the remodeled matrix in DMEM supplemented with 10% FBS and 1% penicillin–streptomycin and allowed to grow to confluence for 4 days, after which matrices were transferred to an air–liquid interface and CCs allowed to invade into the organotypic matrices for 12 days (Extended Data Fig. 4f). PXS-5505 (30 μM) or PXS-5120 (100 nM) was added to medium at 48-h intervals for the duration. At the end point, matrices were fixed in 10% formalin and processed for histological analysis by H&E and panCK staining. The invasive index was measured in three representative areas per matrix and the number of invaded cells per mm^2 was calculated. No statistical methods were used to predetermine sample sizes but our sample sizes are similar to those reported in previous publications[36],[39].\nExtended Data Fig. 4 PXS-5505 inhibits collagen cross-linking by PDAC CAFs in vitro resulting in decreased cancer cell invasion. a. Schematic of organotypic matrix remodeling assay whereby CAFs are embedded into a 3D collagen matrix and growth media supplemented with or without PXS-5505 to inhibit lysyl oxidase family activity b. Chemical structures of lysyl oxidase family catalyzed hydroxyallysine or allysine residues and the subsequent divalent and trivalent bonds that are formed that can be quantified by mass spectrometry. c. Representative images of 3D organotypic matrix contraction by human pancreatic cancer CAFs at days 2, 6 and 12 in the absence (gray) and presence (pink) of PXS-5505 (30 µM). Scale bars = 5 mm. […] Data presented as mean values +/− SD. d. […] Data presented as mean values +/− SD. Relative fold expression of LOXL family members compared to LOX were determined by 2^–∆∆Ct approach. f. […] Comparison of measured area of matrices between control, PXS-5120 and PXS-5505 treatment groups (n = 3) over time. i. […] Representative images of invasion of KPC cancer cells into a contracted organotypic matrix as determined by H&E staining. […]"}, "[1]": {"test_system": "KPC CAF remodeled 3D collagen matrices", "assay": "Matrix stiffness by unconfined compression testing of organotypic matrices", "assay_type": "cell-based, mouse", "conditions": "PXS-5120 100 nM, day 12", "method": "as §1, with “data […]” for “data”"}, "SSAO": {"target": "T1, SSAO (Homo sapiens, UniProt Q16853)", "T1 sequence (Q16853 1-763)": "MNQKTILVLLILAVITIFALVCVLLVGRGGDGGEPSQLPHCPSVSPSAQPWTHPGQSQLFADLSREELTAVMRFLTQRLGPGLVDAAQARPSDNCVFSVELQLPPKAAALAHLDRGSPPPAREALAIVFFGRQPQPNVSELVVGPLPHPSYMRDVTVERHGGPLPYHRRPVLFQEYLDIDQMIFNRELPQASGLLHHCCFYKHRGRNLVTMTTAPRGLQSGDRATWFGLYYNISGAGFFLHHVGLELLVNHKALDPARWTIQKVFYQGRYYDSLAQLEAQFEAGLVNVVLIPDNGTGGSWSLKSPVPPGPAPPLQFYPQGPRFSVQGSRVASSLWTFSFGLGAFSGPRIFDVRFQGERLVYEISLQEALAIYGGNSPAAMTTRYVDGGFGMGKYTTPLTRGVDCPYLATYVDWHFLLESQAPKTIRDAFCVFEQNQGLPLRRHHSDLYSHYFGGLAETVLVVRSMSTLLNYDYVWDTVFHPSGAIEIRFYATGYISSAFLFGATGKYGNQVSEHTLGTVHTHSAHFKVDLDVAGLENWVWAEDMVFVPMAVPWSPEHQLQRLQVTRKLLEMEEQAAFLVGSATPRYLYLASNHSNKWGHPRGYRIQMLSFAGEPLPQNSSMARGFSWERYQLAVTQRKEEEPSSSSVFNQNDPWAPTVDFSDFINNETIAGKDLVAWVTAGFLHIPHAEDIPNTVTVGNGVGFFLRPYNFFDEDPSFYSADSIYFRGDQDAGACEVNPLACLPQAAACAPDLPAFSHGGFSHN", "assay": "Substrate turnover by H2O2 release, amplex red coupled fluorometric activity assay (Extended Data Fig. 3a)", "assay_type": "biochemical", "text": "(§2) Specifically, BAPN is oxidized by diamine oxidase (DAO) and semicarbazide-sensitive amine oxidase (SSAO)/vascular adhesion protein 1 (VAP-1) in the vasculature (Extended Data Fig. 3a), which releases hydrogen […] (H2O2) and aldehyde in humans leading to toxicity.\n(§3) Data presented as mean values +/− SD. f. […] Data presented as mean values +/− SD. […] Data presented as mean values +/− SD. […] Data presented as mean values +/− SD. Ordinary one-way ANOVA for multiple comparison test performed. Source data"}, "DAO": {"target": "T2, DAO (Homo sapiens, UniProt P19801)", "T2 sequence (P19801 20-751)": "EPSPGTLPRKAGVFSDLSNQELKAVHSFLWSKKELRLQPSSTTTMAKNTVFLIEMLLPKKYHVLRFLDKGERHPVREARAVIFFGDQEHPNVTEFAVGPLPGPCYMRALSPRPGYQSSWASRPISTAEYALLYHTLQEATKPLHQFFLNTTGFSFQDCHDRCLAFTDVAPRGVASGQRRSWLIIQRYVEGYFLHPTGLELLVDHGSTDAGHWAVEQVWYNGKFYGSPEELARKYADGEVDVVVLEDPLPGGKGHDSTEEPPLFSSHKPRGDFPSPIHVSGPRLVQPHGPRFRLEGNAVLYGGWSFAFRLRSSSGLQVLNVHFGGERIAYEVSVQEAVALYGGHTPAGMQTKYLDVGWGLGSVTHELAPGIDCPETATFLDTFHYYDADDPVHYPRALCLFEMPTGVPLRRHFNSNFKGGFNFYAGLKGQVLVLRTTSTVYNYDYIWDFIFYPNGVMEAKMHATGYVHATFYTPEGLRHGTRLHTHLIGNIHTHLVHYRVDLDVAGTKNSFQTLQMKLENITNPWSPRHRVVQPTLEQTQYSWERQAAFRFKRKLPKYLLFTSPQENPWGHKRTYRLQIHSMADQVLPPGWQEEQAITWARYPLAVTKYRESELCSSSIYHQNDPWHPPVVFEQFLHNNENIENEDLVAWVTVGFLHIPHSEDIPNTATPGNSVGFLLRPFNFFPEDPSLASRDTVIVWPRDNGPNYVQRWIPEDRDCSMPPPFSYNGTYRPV", "assay": "Substrate turnover by H2O2 release, amplex red coupled fluorometric activity assay (Extended Data Fig. 3a)", "assay_type": "biochemical", "text": "as §2, §3"}, "[2]": {"conditions": "listed as value 30 (unit not given)"}, "[3]": {"conditions": "listed as value 60 (unit not given)"}, "[4]": {"conditions": "listed as value 300 (unit not given)"}}}
{"compound": "Cc1c(-c2cccc(S(=O)(=O)N(C)C)c2)c2cc(C(=O)O)ccc2n1C/C(F)=C/CN", "note": "[PXS-5120, reference compound]", "values": [{"measurement": "CC invasion", "setting": "KPC CCs", "result": "does not lead to decreased CC invasion"}, {"measurement": "stiffening of 3D collagen matrices", "setting": "[1]", "result": "does not significantly block stiffening"}]}
{"compound": "N#CCCN", "note": "[BAPN, β-aminopropionitrile, reference compound]", "values": [{"measurement": "processing as a substrate by SSAO/VAP-1", "setting": "SSAO", "result": "oxidized"}, {"measurement": "Turnover by SSAO as measured by H2O2 release, mean", "setting": "SSAO; [2]", "result": 1.3236}, {"measurement": "Turnover by SSAO as measured by H2O2 release, mean", "setting": "SSAO; [3]", "result": 1.5791}, {"measurement": "Turnover by SSAO as measured by H2O2 release, mean", "setting": "SSAO; [4]", "result": 2.4689}, {"measurement": "processing as a substrate by DAO", "setting": "DAO", "result": "oxidized"}, {"measurement": "Turnover by DAO as measured by H2O2 release, mean", "setting": "DAO; [2]", "result": 3.75}, {"measurement": "Turnover by DAO as measured by H2O2 release, mean", "setting": "DAO; [3]", "result": 4.64}, {"measurement": "Turnover by DAO as measured by H2O2 release, mean", "setting": "DAO; [4]", "result": 5.888}]}
